Source: patent US9273011B2, “Substituted pyridazines for the treatment of pain” (INHIBITAXIN LIMITED, priority 2011, dated 2016)

Target: human Autotaxin enzyme (Homo sapiens (Human), UniProt Q13822)
Experiment: Autotaxin FS-3 assay
Type: biochemical
Conditions: Autotaxin FS3 assay; human Autotaxin enzyme 2 nM; inhibition of FS-3 fluorescence; range and n in brackets
Text: Autotaxin (ATX) converts Lysophosphatidyl choline (LPC) to Lysophosphatidic acid (LPA) via its Lysophosphodiesterase (lysoPLD) activity. FS-3 is an LPC analogue that is conjugated with both a fluorophore and a quencher. In its native state the quencher interferes with the fluorophore's fluorescence. Once autotaxin cleaves FS-3, the fluorophore becomes liberated from the quencher, resulting in increased fluorescence. Thus increase in fluorescence is a measure of ATX activity. Any compound that inhibits the activity of Autotaxin will show less fluorescence read in presence of FS-3, which could be measured by fluorimetric analysis. See U.S. Pat. No. 7,989,663.
Autotaxin Inhibitor Screening Kits are available from Echelon Biosciences, Logan, Utah, USA [http://echelon-inc.com/, accessed 6 Oct. 2011]. Using the methods of Gierse et al [“A novel autotaxin inhibitor reduces lysophosphatidic acid levels in plasma and the site of inflammation”, Journal of Pharmacology and Experimental Therapeutics, vol 334(1), 310-317 (2010), see in particular page 312 lines 4-14], the potency of the compounds of the invention as inhibitors of human autotaxin enzyme may be measured (as IC50 values).
The FS-3 assay to identify ATX inhibitors was preformed as follows: 3 μl of standard inhibitor (referred to as PF-8380 in Gierse et al above) and test compounds were added to an assay plate. To each assay well, containing test compounds or standard, 24 μl of human Autotaxin enzyme (2 nM) was added. The assay plate was then centrifuged at 1000 rpm for 1 minute and allowed to incubate at 37° C. for 30 minutes. Following the incubation period each plate was read in a fluorescence plate reader (Spectra Max M5: excitation: 494 nm and emission: 520 nm) and IC50 values were derived from inhibition of FS-3 fluorescence (as described above).

| IC50 | Structure (SMILES) |
| --- | --- |
| 0.014 µM | COc1ccc(C(CCO)Nc2ccc(C(=O)NCc3cc(F)ccc3F)nn2)cc1 (centres unmarked) [Example 1, N-(2,5-difluorobenzyl)-6-{[3-hydroxy-1-(4-methoxy-phenyl)propyl]amino}pyridazine-3-carboxamide] |
| 0.0738 µM | O=C(NCCN1CCNC1=O)c1ccc(NC2Cc3ccccc3C2)nn1 [Example 6, 6-(2,3-dihydro-1H-inden-2-ylamino)-N-[2-(2-oxoimidazolidin-1-yl)ethyl]pyridazine-3-carboxamide] |
| 0.646 µM | Cc1onc(-c2ccccc2)c1CNc1ccc(C(=O)NCc2cc(F)cc(F)c2)nn1 [Example 14, N-(3,5-difluorobenzyl)-6-{[(5-methyl-3-phenylisoxazol-4-yl)methyl]amino}pyridazine-3-carboxamide] |
| 0.357 µM | Cc1noc(NC(=O)c2ccc(NC3CCN(Cc4ccccc4)C3)nn2)c1C (centres unmarked) [Example 12, 6-[(1-benzylpyrrolidin-3-yl)amino]-N-(3,4-dimethyl-isoxazol-5-yl)pyridazine-3-carboxamide] |
| 0.0249 µM | COc1ccc(C(CCO)Nc2ccc(C(=O)NCc3cc(F)cc(F)c3)nn2)cc1 (centres unmarked) [Example 2, N-(3,5-difluorobenzyl)-6-{[3-hydroxy-1-(4-methoxy-phenyl)propyl]amino}pyridazine-3-carboxamide] |
| 0.1 µM | Cc1noc(NC(=O)c2ccc(NC(C)c3ccc(Cl)cc3)nn2)c1C (centres unmarked) [Example 8, 6-{[1-(4-chlorophenyl)ethyl]amino}-N-(3,4-dimethyl-isoxazol-5-yl)pyridazine-3-carboxamide] |
| 0.507 µM | Cc1cc(NC(=O)c2ccc(NC(CO)Cc3ccc(Cl)cc3)nn2)n(C)n1 (centres unmarked) [Example 13, 6-{[1-(4-chlorobenzyl)-2-hydroxyethyl]amino}-N-(1,3-dimethyl-1H-pyrazol-5-yl)pyridazine-3-carboxamide] |
| 0.248 µM | Cc1noc(NC(=O)c2ccc(NCc3cccc(Cl)c3Cl)nn2)c1C [Example 11, 6-[(2,3-dichlorobenzyl)amino]-N-(3,4-dimethyl-isoxazol-5-yl)pyridazine-3-carboxamide] |
| 0.114 µM | Cc1noc(NC(=O)c2ccc(NCc3cccc4ccccc34)nn2)c1C [Example 10, N-(3,4-dimethylisoxazol-5-yl)-6-[(1-naphthylmethyl)-amino]pyridazine-3-carboxamide] |
| 0.0652 µM | CCN(Cc1ccncc1)c1ccc(C(=O)Nc2cc(-c3ccccc3)nn2C)nn1 [Example 4, 6-[ethyl(pyridin-4-ylmethyl)amino]-N-(1-methyl-3-phenyl-1H-pyrazol-5-yl)pyrid azine-3-carboxamide] |
| 0.0695 µM | COc1ccc(C(CCO)Nc2ccc(C(=O)Nc3onc(C)c3C)nn2)cc1 (centres unmarked) [Example 5, N-(3,4-dimethylisoxazol-5-yl)-6-{[3-hydroxy-1-(4-methoxyphenyl)propyl]amino}pyridazine-3-carboxamide] |
| 0.0376 µM | Cc1noc(NC(=O)c2ccc(NC(CO)Cc3ccc(Cl)cc3)nn2)c1C (centres unmarked) [Example 3, 6-{[1-(4-chlorobenzyl)-2-hydroxyethyl]amino}-N-(3,4-dimethylisoxazol-5-yl)pyridazine-3-carboxamide] |
| 0.0892 µM | O=C(NCCCn1ccnc1)c1ccc(NCc2cc(Cl)cc(Cl)c2)nn1 [Example 7, 6-[(3,5-dichlorobenzyl)amino]-N-[3-(1H-imidazol-1-yl)propyl]pyridazine-3-carboxamide] |
| 0.103 µM | Cc1ccc(F)c(CNc2ccc(C(=O)Nc3onc(C)c3C)nn2)c1F [Example 9, 6-[(2,6-difluoro-3-methylbenzyl)amino]-N-(3,4-dimethylisoxazol-5-yl)pyridazine-3-carboxamide] |
